In the NIST ThermoML archive (doi:10.1016/j.jct.2004.07.015):
Numbers after ± are expanded uncertainties.

How the values were obtained:
[1] = 101.33 kPa, Liquid
[2] = xn = mol fraction of the nth substance listed; details: 101.3 kPa, Liquid

C1COCO1 [1,3-dioxolane]
[1]
Details	mass density [kg/m3]	speed of sound [m/s]
298.15 K	1058.98 ± 0.58	1340.2 ± 1.7
313.15 K	1040 ± 0.56	1270.9 ± 1.6

C1COCO1 [1,3-dioxolane] + CC(C)(C)O
[2]
Details	mass density, 298.15 K [kg/m3]	mass density, 313.15 K [kg/m3]	speed of sound, 298.15 K [m/s]	speed of sound, 313.15 K [m/s]
x1 = 0.0495	789.79 ± 0.31	–	1129.2 ± 1.3	–
x1 = 0.0567	–	775.49 ± 0.32	–	1065.2 ± 1.3
x1 = 0.0949	–	782.77 ± 0.32	–	1071.1 ± 1.3
x1 = 0.0965	798.83 ± 0.31	–	1135.6 ± 1.3	–
x1 = 0.1973	–	803.78 ± 0.33	–	1087.4 ± 1.3
x1 = 0.1996	820.33 ± 0.32	–	1151 ± 1.3	–
x1 = 0.2909	840.96 ± 0.33	–	1165.8 ± 1.4	–
x1 = 0.2919	–	824.8 ± 0.34	–	1103.5 ± 1.3
x1 = 0.4039	–	851.81 ± 0.35	–	1123.4 ± 1.4
x1 = 0.4049	868.7 ± 0.35	–	1186.2 ± 1.4	–
x1 = 0.4951	–	875.4 ± 0.37	–	1141.2 ± 1.4
x1 = 0.4972	892.83 ± 0.37	–	1204.9 ± 1.5	–
x1 = 0.5948	–	903.12 ± 0.39	–	1162.4 ± 1.5
x1 = 0.5974	920.82 ± 0.39	–	1226.8 ± 1.5	–
x1 = 0.6997	–	934.45 ± 0.42	–	1187.1 ± 1.5
x1 = 0.7033	952.73 ± 0.42	–	1252.5 ± 1.5	–
x1 = 0.8031	–	967.86 ± 0.45	–	1213.5 ± 1.5
x1 = 0.8033	985.46 ± 0.46	–	1279.3 ± 1.6	–
x1 = 0.8944	1017.75 ± 0.49	–	1305.9 ± 1.6	–
x1 = 0.8959	–	1000.17 ± 0.49	–	1239.6 ± 1.6
x1 = 0.9439	1036.49 ± 0.52	–	1321.3 ± 1.7	–
x1 = 0.9464	–	1018.99 ± 0.51	–	1254.3 ± 1.6

C1COCO1 [1,3-dioxolane] + CC(C)CO
[2]
Details	mass density, 298.15 K [kg/m3]	mass density, 313.15 K [kg/m3]	speed of sound, 298.15 K [m/s]	speed of sound, 313.15 K [m/s]
x1 = 0.0434	–	793.86 ± 0.31	–	1140.5 ± 1.3
x1 = 0.0675	810.83 ± 0.3	–	1193.2 ± 1.3	–
x1 = 0.0922	–	802.94 ± 0.31	–	1143.6 ± 1.3
x1 = 0.0932	815.89 ± 0.31	–	1195.3 ± 1.4	–
x1 = 0.1938	–	822.73 ± 0.32	–	1151.2 ± 1.3
x1 = 0.2005	837.99 ± 0.32	–	1205.1 ± 1.4	–
x1 = 0.2946	858.48 ± 0.33	843.76 ± 0.33	1214.8 ± 1.4	1159.9 ± 1.4
x1 = 0.395	881.68 ± 0.35	–	1226.7 ± 1.4	–
x1 = 0.3984	–	866.86 ± 0.35	–	1170.5 ± 1.4
x1 = 0.5044	–	892.29 ± 0.37	–	1182.9 ± 1.4
x1 = 0.5062	908.95 ± 0.37	–	1241.8 ± 1.5	–
x1 = 0.6042	–	917.95 ± 0.39	–	1196.4 ± 1.5
x1 = 0.6065	935.18 ± 0.4	–	1258.1 ± 1.5	–
x1 = 0.6962	–	943.18 ± 0.42	–	1211.4 ± 1.5
x1 = 0.6977	960.69 ± 0.42	–	1274.3 ± 1.6	–
x1 = 0.7995	991.23 ± 0.46	–	1295.4 ± 1.6	–
x1 = 0.8009	–	974.09 ± 0.45	–	1230.6 ± 1.6
x1 = 0.8928	–	1003.34 ± 0.49	–	1249.5 ± 1.6
x1 = 0.8957	1022.45 ± 0.5	–	1316.5 ± 1.6	–
x1 = 0.9439	–	1020.41 ± 0.51	–	1260.2 ± 1.6
x1 = 0.9451	1039.33 ± 0.52	–	1327.6 ± 1.7	–

C1COCCO1 [1,4-dioxane]
[1]
Details	mass density [kg/m3]	speed of sound [m/s]
298.15 K	1027.96 ± 0.18	1344.8 ± 1.4
313.15 K	1010.8 ± 0.15	1279.8 ± 1.3

C1COCCO1 [1,4-dioxane] + CC(C)(C)O
[2]
Details	mass density, 298.15 K [kg/m3]	mass density, 313.15 K [kg/m3]	speed of sound, 298.15 K [m/s]	speed of sound, 313.15 K [m/s]
x1 = 0.0502	791.11 ± 0.3	–	1133.5 ± 1.3	–
x1 = 0.0525	–	776.05 ± 0.3	–	1069.8 ± 1.2
x1 = 0.0802	797.29 ± 0.29	–	1139.5 ± 1.3	–
x1 = 0.0886	–	783.75 ± 0.3	–	1078.1 ± 1.2
x1 = 0.2051	–	808.89 ± 0.27	–	1102.3 ± 1.2
x1 = 0.2164	826.41 ± 0.26	–	1166.2 ± 1.3	–
x1 = 0.287	–	827.2 ± 0.26	–	1118.9 ± 1.2
x1 = 0.2915	843.19 ± 0.25	–	1180.4 ± 1.3	–
x1 = 0.3926	–	851.46 ± 0.23	–	1139.9 ± 1.2
x1 = 0.3944	867.16 ± 0.22	–	1201.4 ± 1.3	–
x1 = 0.4938	–	875.49 ± 0.21	–	1160.8 ± 1.2
x1 = 0.496	891.65 ± 0.2	–	1222.4 ± 1.3	–
x1 = 0.592	–	899.61 ± 0.19	–	1181.6 ± 1.3
x1 = 0.5929	915.92 ± 0.18	–	1243.8 ± 1.3	–
x1 = 0.6814	938.8 ± 0.16	–	1264.1 ± 1.3	–
x1 = 0.6904	–	924.78 ± 0.16	–	1202.7 ± 1.3
x1 = 0.7994	–	953.91 ± 0.14	–	1227.9 ± 1.3
x1 = 0.8029	971.23 ± 0.12	–	1293.2 ± 1.3	–
x1 = 0.8871	–	978.21 ± 0.11	–	1250.3 ± 1.3
x1 = 0.8893	995.28 ± 0.1	–	1315.3 ± 1.3	–
x1 = 0.9287	1006.7 ± 0.1	–	1325.5 ± 1.3	–
x1 = 0.9421	–	993.91 ± 0.1	–	1264.2 ± 1.3

CC(C)CO [2-methyl-1-propanol]
[1]
Details	mass density [kg/m3]	speed of sound [m/s]
298.15 K	797.83 ± 0.49	1188.5 ± 1.3
313.15 K	785.96 ± 0.51	1138.4 ± 1.3

CC(C)CO [2-methyl-1-propanol] + C1COCCO1
[2]
Details	mass density, 298.15 K [kg/m3]	mass density, 313.15 K [kg/m3]	speed of sound, 298.15 K [m/s]	speed of sound, 313.15 K [m/s]
x2 = 0.0559	809.27 ± 0.29	–	1196.2 ± 1.3	–
x2 = 0.0612	–	798.12 ± 0.29	–	1146 ± 1.3
x2 = 0.0898	–	803.92 ± 0.29	–	1149.5 ± 1.3
x2 = 0.0943	817.3 ± 0.28	–	1201.4 ± 1.3	–
x2 = 0.1946	–	825.35 ± 0.27	–	1162.3 ± 1.3
x2 = 0.1959	838.82 ± 0.26	–	1215.5 ± 1.3	–
x2 = 0.2981	860.89 ± 0.24	–	1229.7 ± 1.3	–
x2 = 0.3039	–	848.25 ± 0.24	–	1176.2 ± 1.3
x2 = 0.4033	–	869.73 ± 0.22	–	1189.2 ± 1.3
x2 = 0.4039	884.22 ± 0.22	–	1245.1 ± 1.3	–
x2 = 0.5062	907.2 ± 0.19	–	1260.6 ± 1.3	–
x2 = 0.5086	–	892.99 ± 0.2	–	1203.6 ± 1.3
x2 = 0.5674	–	906.3 ± 0.19	–	1211.8 ± 1.3
x2 = 0.603	929.49 ± 0.17	–	1276.1 ± 1.3	–
x2 = 0.7018	–	937.3 ± 0.15	–	1232 ± 1.3
x2 = 0.7021	952.9 ± 0.15	–	1292.4 ± 1.3	–
x2 = 0.7966	976 ± 0.12	–	1308.7 ± 1.3	–
x2 = 0.8296	–	967.84 ± 0.12	–	1251.9 ± 1.3
x2 = 0.8879	–	982.25 ± 0.11	–	1261 ± 1.3
x2 = 0.8943	1000.57 ± 0.1	–	1326 ± 1.3	–
x2 = 0.9298	–	992.74 ± 0.1	–	1267.7 ± 1.3
x2 = 0.9328	1010.53 ± 0.1	–	1333 ± 1.4	–

CC(C)(C)O [2-methylpropan-2-ol]
[1]
Details	mass density [kg/m3]	speed of sound [m/s]
298.15 K	780.86 ± 0.51	1122.8 ± 1.3
313.15 K	765.16 ± 0.54	1057.4 ± 1.2
